Test results as given in article PMC5062570 (Nature Communications, 2016).
Values joined by “and” are separate entries in the source; they are usually repeats but may differ in a detail not shown here. Equal entries are not always repeated. “Also recorded” adds a separate entry of the source.

Columns and labels:
CatD [1] = target: T1, CatD (Homo sapiens, UniProt P07339); test: CatD cellular assay (competition of PF-7802 photolabelling in live ARPE-19 cells); assay type: cell-based; set-up: host or cells: ARPE-19; conditions: for CatD potency increase in live cells: CatD enzyme IC50 versus CatD cellular IC50; for IC50: live ARPE-19 cells, PF-7802 photoprobe 100 nM, 30 min
Description: ARPE-19 cells were plated at a density of 1.2 × 10^6 cells per well in six-well dishes 12–24 h before probe labelling. Culture media was removed completely and replaced with 1 ml of the appropriate serum-free media (no supplements) per well. Cells were then pretreated with test compounds at the indicated concentrations for 30 min (0.5% DMSO, 37 °C, 5% CO2). […] Ultraviolet irradiation was performed without culture plate lids for efficient irradiation, and samples were slowly rotated to prevent evaporation. After ultraviolet irradiation, cells were washed twice with Dulbecco's phosphate-buffered saline (DPBS), scraped into DPBS, centrifuged and stored as pellets at −80 °C.
Cells were lysed with sonication on ice in 70 μl DPBS and protein concentrations were determined using a BCA assay (Pierce). Total protein concentrations were then normalized to 1 mg ml^−1 in 50 μl total volume before addition of 5.5 μl click chemistry mix (1 : 3 : 1 : 0.5 volume of 50 mM CuSO4 (Sigma) in H2O : 1.7 mM TBTA (Sigma) in 4:1 t-BuOH:DMSO : 50 mM TCEP (Hampton Research) in dPBS : 10 mM TAMRA-azide (Lumiprobe) in DMSO - mixed immediately before use. Reagent solutions can be premade and stored at 4 °C except for TCEP, which should be made immediately before use). […] All fluorescence gels are presented in greyscale.
Target sequence in this assay (P07339 169-412 limits assumed): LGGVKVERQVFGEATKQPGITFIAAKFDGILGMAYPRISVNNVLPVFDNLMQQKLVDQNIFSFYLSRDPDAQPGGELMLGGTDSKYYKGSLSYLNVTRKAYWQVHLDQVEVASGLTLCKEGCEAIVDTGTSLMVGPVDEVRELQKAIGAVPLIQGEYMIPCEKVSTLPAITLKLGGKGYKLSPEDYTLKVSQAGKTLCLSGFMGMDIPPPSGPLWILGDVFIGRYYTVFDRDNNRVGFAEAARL
Target sequence in this assay (P07339 65-162 limits assumed): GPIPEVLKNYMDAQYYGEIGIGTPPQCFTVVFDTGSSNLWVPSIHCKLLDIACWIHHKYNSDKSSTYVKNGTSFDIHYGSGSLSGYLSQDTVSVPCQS

BACE2 = target: T2, BACE2 (Homo sapiens, UniProt Q9Y5Z0); test: BACE2 purified enzyme fluorescence polarization assay; assay type: biochemical; conditions: purified human enzyme, fluorescence polarization
T2 construct: purchased R&D Systems 4097-AS
T2 sequence (Q9Y5Z0 63-518): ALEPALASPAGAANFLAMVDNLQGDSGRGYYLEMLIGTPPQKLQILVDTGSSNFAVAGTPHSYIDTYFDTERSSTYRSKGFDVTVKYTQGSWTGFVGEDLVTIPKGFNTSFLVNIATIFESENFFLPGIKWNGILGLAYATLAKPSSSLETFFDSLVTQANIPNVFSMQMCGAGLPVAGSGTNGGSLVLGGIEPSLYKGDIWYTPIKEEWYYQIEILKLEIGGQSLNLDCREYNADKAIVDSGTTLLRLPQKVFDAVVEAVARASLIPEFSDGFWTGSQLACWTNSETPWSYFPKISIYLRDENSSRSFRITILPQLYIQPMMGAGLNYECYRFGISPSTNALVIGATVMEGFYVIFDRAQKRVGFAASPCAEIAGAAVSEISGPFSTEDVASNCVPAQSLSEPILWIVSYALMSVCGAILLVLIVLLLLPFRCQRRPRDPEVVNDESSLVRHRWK
Method in brief: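 Purified enzymes incubated with compound (1% DMSO, 37 °C) and 150 nM biotinylated peptide substrate in 100 mM NaOAc pH 4.5. Reaction stopped with 1.5 μM streptavidin; inhibition read by fluorescence polarization. BACE2 0.5 nM, BACE1 substrate, 1 h; CatE 1.0 nM, CatD substrate, 1.5 h.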

[2] = tested on: retinal pigment epithelium (RPE); test: Exploratory toxicology, ocular toxicity by retinal histology in rats; assay type: in vivo; conditions: 14 days; for Female ocular toxicity incidence (positive or negative animals / total evaluated) / Female ocular toxicity outcome / Male ocular toxicity incidence (positive or negative animals / total evaluated) / Male ocular toxicity outcome: rat; for Retinal finding by fluorescence microscopy: rats
Description: Wistar Han rats (obtained from Charles River, 125–300 g, 6–9 weeks old at study start, see Supplementary Table 7 for number of males and females) received daily oral dosing of test compounds or vehicle at the indicated concentrations for 7–29 days as indicated. The doses were prepared in a solution of 0.5% methylcellulose and 0.2% polysorbate 80, or 0.5% methylcellulose and hydroxypropyl methylcellulose acetate succinate (high fine grade) and delivered in a volume of 10 ml kg^−1 per day. Blood samples for bioanalytical analysis were collected in K2EDTA tubes via jugular vessel. Plasma was isolated after centrifugation and stored at −20 °C prior to analysis. Animals were given an additional dose the day after the end of the study (days 8, 15 or 30 for 7, 14 and 29 day studies, respectively) then killed by gas anaesthesia (isoflurane) followed by exsanguination ∼3 h after this final dose.

BACE1 [3] = target: T3, BACE1 (Homo sapiens, UniProt P56817); test: BACE1 purified enzyme fluorescence polarization assay; assay type: biochemical; set-up: His (C); made in house; host or cells: CHO-K1; conditions: purified human enzyme, fluorescence polarization, peptide substrate
Target sequence in this assay (P56817 46-457): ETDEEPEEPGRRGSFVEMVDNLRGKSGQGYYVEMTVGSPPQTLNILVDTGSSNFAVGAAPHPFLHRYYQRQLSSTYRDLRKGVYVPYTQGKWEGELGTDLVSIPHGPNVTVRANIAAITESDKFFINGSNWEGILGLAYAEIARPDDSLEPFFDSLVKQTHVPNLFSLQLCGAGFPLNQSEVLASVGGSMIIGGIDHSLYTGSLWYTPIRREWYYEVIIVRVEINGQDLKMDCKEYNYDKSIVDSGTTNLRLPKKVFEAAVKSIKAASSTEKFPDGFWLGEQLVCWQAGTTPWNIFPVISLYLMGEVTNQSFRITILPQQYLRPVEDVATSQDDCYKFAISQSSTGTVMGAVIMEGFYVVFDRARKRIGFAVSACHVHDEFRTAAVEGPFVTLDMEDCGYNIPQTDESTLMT

CatD [4] = target: T1, CatD; test: CatD purified enzyme fluorescence polarization assay; assay type: biochemical; set-up: final maturation into a non-covalently associated heavy chain and light chain; purchased Sigma C8696; host or cells: human liver; conditions: purified human enzyme, fluorescence polarization, substrate-based
Target sequence in this assay (P07339 65-162 limits assumed): as the sequence (P07339 65-162 limits assumed) above
Target sequence in this assay (P07339 169-412 limits assumed): as the sequence (P07339 169-412 limits assumed) above

[5] = pKa determination by multiplexed capillary electrophoresis; assay type: physicochemical; conditions: aqueous buffers
Description: All pKa values were determined at Analiza, Inc. by multiplexed capillary electrophoresis (mCE) using 96-capillary array electrophoresis instrument to measure the effective mobility (migration time of the compound in relation to neutral marker, DMSO) with ultraviolet detection. The pKa values were obtained from the ionization curves by plotting the compound effective mobility (24 points across pH range 1.7–11.2) versus pH. All pKa results were determined using aqueous buffers with method average absolute error 0.12.

BACE1 [6] = target: T3, BACE1; test: BACE1 biochemical cellular assay (sAPPβ ELISA in H4 cells overexpressing APP695); assay type: cell-based; set-up: endogenous in cells; host or cells: H4 human neuroglioma cells overexpressing human APP695; conditions: for BACE1 potency increase in live cells: BACE1 enzyme IC50 versus BACE1 cellular IC50; for IC50: sAPPβ ELISA, H4 neuroglioma cells with human wild-type APP
Description: Cellular inhibition of BACE1 was determined by measuring sAPPβ, the primary cleavage product of BACE-1, in H4 human neuroglioma cells overexpressing the wild-type human APP695. […] The colorimetric reaction was read by an EnVision plate reader (PerkinElmer).
Target sequence in this assay (P56817 46-501): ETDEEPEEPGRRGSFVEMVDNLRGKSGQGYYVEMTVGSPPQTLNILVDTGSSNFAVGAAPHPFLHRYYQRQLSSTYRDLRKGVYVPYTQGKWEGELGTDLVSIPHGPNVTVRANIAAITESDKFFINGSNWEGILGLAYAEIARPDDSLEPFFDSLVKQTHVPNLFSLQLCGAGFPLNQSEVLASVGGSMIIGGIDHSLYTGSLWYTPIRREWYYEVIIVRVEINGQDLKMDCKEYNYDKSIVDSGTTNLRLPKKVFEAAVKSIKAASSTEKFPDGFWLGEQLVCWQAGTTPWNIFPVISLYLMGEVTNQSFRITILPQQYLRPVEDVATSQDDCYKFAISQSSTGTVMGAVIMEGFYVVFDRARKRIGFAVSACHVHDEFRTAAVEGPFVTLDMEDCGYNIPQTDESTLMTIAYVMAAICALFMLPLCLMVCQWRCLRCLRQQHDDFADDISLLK

For `Cc1cc([C@H]2C[C@H]3[C@@H](CF)SC(N)=N[C@@]3(c3ccc(F)cc3F)CO2)on1` [PF-3195], the “CatD potency increase in live cells” value (CatD [1]) was 17 x, the IC50 (CatD [1]) was 540 nM and the IC50 (BACE2) was 150 nM. The “Female ocular toxicity incidence (positive or negative animals / total evaluated)” value ([2]; 15 mg kg-1 once daily) was 3/3, the “Female ocular toxicity outcome” value ([2]; 15 mg kg-1 once daily) was “Neg (negative (neg) if there was no ocular abnormality observed)” and the “Male ocular toxicity incidence (positive or negative animals / total evaluated)” value ([2]; 15 mg kg-1 once daily) was 3/3. The “Male ocular toxicity outcome” value ([2]; 15 mg kg-1 once daily) was “Neg (negative (neg) if there was no ocular abnormality observed)”, the “Female ocular toxicity incidence (positive or negative animals / total evaluated)” value ([2]; 40 mg kg-1 once daily) was 3/3 and the “Female ocular toxicity outcome” value ([2]; 40 mg kg-1 once daily) was “Neg (negative (neg) if there was no ocular abnormality observed)”. The “Male ocular toxicity incidence (positive or negative animals / total evaluated)” value ([2]; 40 mg kg-1 once daily) was 3/3, the “Male ocular toxicity outcome” value ([2]; 40 mg kg-1 once daily) was “Neg (negative (neg) if there was no ocular abnormality observed)” and the “Female ocular toxicity incidence (positive or negative animals / total evaluated)” value ([2]; 90 mg kg-1 once daily) was 2/3. The “Female ocular toxicity outcome” value ([2]; 90 mg kg-1 once daily) was “Pos”, the “Male ocular toxicity incidence (positive or negative animals / total evaluated)” value ([2]; 90 mg kg-1 once daily) was 1/3 and the “Male ocular toxicity outcome” value ([2]; 90 mg kg-1 once daily) was “Pos”. The “Female ocular toxicity incidence (positive or negative animals / total evaluated)” value ([2]; 200 mg kg-1 once daily) was 2/3, the “Female ocular toxicity outcome” value ([2]; 200 mg kg-1 once daily) was “Pos” and the “Male ocular toxicity incidence (positive or negative animals / total evaluated)” value ([2]; 200 mg kg-1 once daily) was 3/3. For the same compound, the “Male ocular toxicity outcome” value ([2]; 200 mg kg-1 once daily) was “Pos”, the “Retinal finding by fluorescence microscopy” value (shortened to “Retinal finding”) ([2]; 15 mg kg-1 or 40 mg kg-1 daily) was “no intermediate phenotype” and the “Retinal finding” value ([2]; 90 mg kg-1 or 200 mg kg-1 daily) was “accumulated autofluorescent granules”. The IC50 (BACE1 [3]) was 62 nM, the IC50 (CatD [4]) was 9000 nM and the pKa [5] was 7.0. The “BACE1 potency increase in live cells” value (BACE1 [6]) was 4.1 x and the IC50 (BACE1 [6]) was 15 nM.
With `Cc1cc([C@H]2C[C@H]3[C@@H](C)SC(N)=N[C@@]3(c3ccc(F)cc3F)CO2)on1` [PF-9283] the “CatD potency difference between cell-free enzyme and cellular assays” value (CatD [1]) was about 86 fold, the “CatD potency increase in live cells” value (CatD [1]) was 86 x and the “BACE1 selectivity over CatD in cells” value (CatD [1]; cellular inhibition of BACE1 cleavage of APP versus inhibition of CatD labelling by PF-7802) was 23 fold. For the same compound, the IC50 (CatD [1]) was 140 nM and < 300 nM, the IC50 (BACE2) was 140 nM and the “Female ocular toxicity incidence (positive or negative animals / total evaluated)” value ([2]; 30 mg kg-1 once daily) was 1/3. The “Female ocular toxicity outcome” value ([2]; 30 mg kg-1 once daily) was “Pos”, the “Male ocular toxicity incidence (positive or negative animals / total evaluated)” value ([2]; 30 mg kg-1 once daily) was 3/3 and the “Male ocular toxicity outcome” value ([2]; 30 mg kg-1 once daily) was “Neg (negative (neg) if there was no ocular abnormality observed)”. For the same compound, the “Retinal finding” value ([2]; 80 mg kg-1 daily) was “accumulation of autofluorescent granules (AFG) in the RPE; also recorded: accumulated autofluorescent granules are visible”, the IC50 (BACE1 [3]) was 74 nM and the IC50 (CatD [4]) was 12000 nM. For the same compound, the pKa [5] was 7.7, the “BACE1 potency increase in live cells” value (BACE1 [6]) was 12 x and the IC50 (BACE1 [6]) was 6 nM.
